Assay results as given in paper PMC8085067, “The dimer-monomer equilibrium of SARS-CoV-2 main protease is affected by small molecule inhibitors” (Scientific Reports, 2021).
“Also recorded” adds a separate entry of the source.

Target: SARS-CoV-2 M^pro dimer-monomer equilibrium (Severe acute respiratory syndrome coronavirus 2, UniProt P0DTD1)
Experiment: SAXS analysis of M^pro dimer-monomer equilibrium in presence of inhibitors
Conditions: for effect on M^pro dimer-monomer equilibrium (in words): SAXS; for αCp (rate of change of dissociation heat capacity with inhibitor concentration) / αS (rate of change of dissociation entropy with inhibitor concentration) / αG (rate of change of dissociation Gibbs free energy with inhibitor concentration): global SAXS fit, M^pro 30 μM; for αG (rate of change of dissociation Gibbs free energy with inhibitor concentration): inhibitor 30 and 60 μM, 30-45 °C

Row | SMILES | effect on M^pro dimer-monomer equilibrium (in words) | αCp (rate of change of dissociation heat capacity with inhibitor concentration) | αS (rate of change of dissociation entropy with inhibitor concentration) | αG (rate of change of dissociation Gibbs free energy with inhibitor concentration)
1 | Fc1c(F)c(N2CCOCCOCCOCCOCCOCC2)c(F)c(F)c1-c1nc(-c2ccccc2)no1 [Inhibitor 4, 16-(2,3,5,6-tetrafluoro-4-(3-phenyl-1,2,4-oxadiazol-5-yl)phenyl)-1,4,7,10,13-pentaoxa-16-azacyclooctadecane] | do not affect in a significant way the dimer-monomer equilibrium; also recorded: very weak stabilizing effect of the dimer | -2±2 10^-2 μM^-1 | -1±5 10^-2 μM^-1 | 0.0±0.1 10^-2 μM^-1
2 | OCCN(CCOc1c(F)c(F)c(-c2nc(-c3ccncc3)no2)c(F)c1F)CCOc1c(F)c(F)c(-c2nc(-c3ccncc3)no2)c(F)c1F [Inhibitor 3] | do not affect in a significant way the dimer-monomer equilibrium; also recorded: does not alter the native dissociation equilibrium | 0±4 10^-2 μM^-1 | -8±4 10^-2 μM^-1 | 0.00±0.08 10^-2 μM^-1
3 | CCNC(=O)c1noc(-c2c(F)c(F)c(NCCN(CCNc3c(F)c(F)c(-c4nc(C(=O)NCC)no4)c(F)c3F)CCNc3c(F)c(F)c(-c4nc(C(=O)NCC)no4)c(F)c3F)c(F)c2F)n1 [Inhibitor 7, 5,5’,5”-(((nitrilotris(ethane-2,1-diyl))tris(azanediyl))tris(2,3,5,6-tetrafluorobenzene-4,1-diyl))tris(N-ethyl-1,2,4-oxadiazole-3-carboxamide)] | mostly able to increase the dissociation equilibrium constant | -3±3 10^-2 μM^-1 | -5±2 10^-2 μM^-1 | -0.19±0.07 10^-2 μM^-1
